{"source": "patent US6723830B2", "about": "“Short peptides which selectively modulate the activity of protein kinases” (Children's Medical Center Corporation, priority 1998, dated 2004)", "key": {"[1]": {"tested_on": "fresh adipocytes", "assay": "Glucose uptake (3H-deoxy glucose) by adipose tissue cells", "type": "cell-based, rats", "conditions": "10 μM peptide", "description": "To 3 ml of buffer with 10 mg collagenase, 3 g epididymal fat pad (from 2-3 male rats) was introduced. The fat was cut up with scissors. The pieces of fat were swirled and shaken in a 37° C. water bath set at 100-150 repetitions/minute for approximately 1 hour with swirling every 15 minutes while digesting and every 5 minutes towards the end. About 6 ml of buffer was added to the vial.\nA 250μ nylon mesh over the top was secured with a rubber band and the contents of the container were gently squeezed into a 50 ml plastic tube. The total volume for each wash was 15 ml.\nThe tube was centrifuged. The adipose cells floated to the top of the liquid. The buffer was removed using a 35 ml metal-tipped syringe with a needle. Buffer was added to 15 ml and the clumps of cells were gently broken up by mixing up and down in the syringe. This process was repeated for a total of 4 centrifugations at 1000 with the last centrifugation at 2000 rpm. At this point, any fat was removed from the top of the cells.\nBuffer and dilute cell suspension with buffer were removed to cytocrit of 5-10%. The cells were kept at 37° C. for 1 hour.\n500 μl buffer was added with or without additives (insulin 10-10,000 μU/ml, peptides 0.1-10 μM) to 10 ml plastic tubes.\n500 μl aliquots of the cell suspension were added to the tubes.\nAfter incubation for 30 minutes at 37° C. in a shaking water bath (approximately 300 strokes/minute), 200 μl of buffer containing 3H—Deoxy Glucose (approx. 1200 cpm/μl) was added to each tube.\nAfter 30 minutes incubation with 3H-DOG at 37° C., 200 μl aliquots were transferred to microcentrifuge tubes containing 200 μl Dinonyl phthalate. Cells were rapidly separated from the aqueous buffer by centrifugation at 10,000 g for 30-60 sec. Cells separated in the top layer from the aqueous buffer by Dinonyl phthalate.\nCell associated radioactivity was counted in a liquid scintillation counter.\nGlucose-uptake was measured in fresh adipocytes, incubated with or without insulin (10 μU) as described above, in the absence (control) or the presence of 10 μM of peptide K094D101 (derived from the αD region of IRK)."}, "[2]": {"tested_on": "B16 melanoma cells", "assay": "Induction of melanogenesis in B16 melanoma cells, observed by eye", "type": "cell-based, mouse", "conditions": "5 days incubation; increase in black pigment seen by eye; FIG. 7", "description": "B16 melanoma cells (a mouse tumor cell line) were cultured in a 24-well plate, 10^5 cells/well, in the presence of various concentrations of K085D102, a Jak2-derived peptide from the αD region. After 5 days incubation in DMEM+10% fetal calf serum under standard conditions, the plate was observed by eye for melanogenesis. Melanogenesis induction was visualized by an increase in the amount of the black pigment in the well. The results are illustrated in FIG. 7 and clearly show a dose response down to a concentration as low as 0.15 μM of the Jak2 peptide of the αD region present in the well."}, "[3]": {"assay": "Appetite suppression: food intake and body weight in mice", "type": "in vivo", "conditions": "C57BL mice", "description": "Male CB6F1 or C57BL mice (Harlan), about 2-4 months old, were fed a pelleted rodent maintenance diet (Koffolk, Tel Aviv, Israel, 19520). The food containers for each group were weighed daily and the average food consumption was calculated per mouse per day.\nDuring the experimental period, the mice were injected intraperitoneally once a day for two consecutive days, 4 mg/mouse, with K085D102 (a Jak2-derived peptide from the αD region) solubilized in 10% DMSO in PBS+0.1% BSA in a volume of 0.2 ml. The control groups were injected with 0.2 ml of the vehicle only.\nFIGS. 4 and 5 illustrate the results obtained with CB6F1 mice while Table II summarizes the results obtained with C57BL mice."}, "[4]": {"tested_on": "CD4+ T cells", "assay": "Th1/Th2 bioassay: IL-4 and IFNγ secretion by ELISA", "type": "cell-based, Balb/c mice", "conditions": "CD4+ T cells incubated 5 days with 0.4, 2 or 10 μM peptide; 24 hour re-stimulation; FIG. 6", "description": "0.5×10^6 small resting CD4+ T cells were isolated from lymph nodes of 8 week-old Balb/c mice. These CD4+ T cells were incubated for 5 days in 2 ml culture medium in 24 well plates coated with anti-CD3 and anti-CD28 antibodies: (5 μg/ml and 2 μg/ml, respectively). 0.4, 2 or 10 μM Jak-derived peptides, initially in 10 μl DMSO, were present in the medium during the 5 day activation period. Control wells contained 10 μl of DMSO (the solvent of the peptide).\nAt the end of the 5 day stimulation period, the medium was replaced with fresh medium containing 10 u/ml IL-2 and the cells were removed from the antibody-coated wells to uncoated wells for a 3 day “rest” and expansion period. Under these stimulating and rest conditions, the differentiation process led to the acquisition of Th2 phenotype (high IL-4 and low IFNγ production upon secondary challenge).\nAt the end of the rest period, the cells were removed, washed and counted. 0.5×10^6 cells were re-stimulated in 1 ml of culture medium by incubation for 24 hours on anti-CD3-+anti-CD28-coated 24 well plates. At the end of the 24 hour re-stimulation period, the supernatant was removed and the level of secreted IL-4 and IFNγ was determined by ELISA. The results were expressed as u/ml or pg/ml of IL-4 and IFNγ respectively, which were secreted into the culture medium by 0.5×10^6 cells during the re-stimulation period."}, "[5]": {"tested_on": "Human endothelial cells (HEC cells)", "assay": "Proliferation of human endothelial cells (methylene blue cell count)", "type": "cell-based", "conditions": "concentration at which significant inhibition of cell proliferation was observed; 72-80 hours incubation", "description": "(§1) Human endothelial cells (referred to herein as “HEC cells”) are the cell line described by Schweitzer et al., Laboratory Investigation 76(1):25 (1997). Human prostate cancer cells (PC3) were obtained by the procedures disclosed in Arbiser et al., Proc. Natl. Acad. Sci. 94:861 (1997), the teachings of which are incorporated herein by reference.\n(§2) 96 well, flat bottom, tissue culture microtiter plates were pre-coated with gelatin (Difco) immediately prior to cell plating by adding 0.100 ml/well of freshly filtered 1% gelatin in glass double distilled water (DDW). The wells were incubated for about 1 hour at 37° C., and then the excess solution was removed by aspiration.\n(§3) Culture medium was prepared from DMEM, penicillin/streptomycin/glutamine (penicillin—100 U/ml; streptomycin—100 μμg/mL; and glutamine—2 mM) and 10% endotoxin free bovine calf serum (Hyclone). A suspension of the cell type being tested at 25×10^3 cells/ml was prepared in the above described culture medium and distributed 0.160 ml/well (about 4000 endothelial cells/well).\n(§4) A series of αD peptide stock solutions was prepared by diluting a 10 mM solution of the αD peptide in 100% DMSO with phosphate buffered saline (PBS) containing 0.1% BSA. […]\n(§5) The wells were washed one time with borate buffer (0.1 M, pH 8.5). […] After extracting overnight, the O.D. was read at 630 nm to determine the number of cells per well. […]"}, "[6]": {"tested_on": "Human prostate cancer cells (PC3)", "assay": "Proliferation of human prostate cancer cells PC3 (methylene blue cell count)", "type": "cell-based", "conditions": "concentration at which significant inhibition of cell proliferation was observed; 72-80 hours incubation", "description": "as §1, §2, §3, §4, §5"}, "[7]": {"conditions": "4 mg/mouse intraperitoneally once a day for two consecutive days, treatment day 1"}, "[8]": {"conditions": "4 mg/mouse intraperitoneally once a day for two consecutive days, treatment day 2"}, "[9]": {"conditions": "recovery after two days of treatment"}}, "note": "* marks the point of attachment. Myristoyl = CCCCCCCCCCCCCC(=O)*"}
{"substance": "K094D101: peptide derived from the αD region of IRK; SEQ ID NO:137 by list order, possibly SEQ ID NO:136 (myristylated) (Myristoyl-AQNNPGRPPPTL-NH2; SMILES CCCCCCCCCCCCCC(=O)N[C@@H](C)C(=O)N[C@@H](CCC(N)=O)C(=O)N[C@@H](CC(N)=O)C(=O)N[C@@H](CC(N)=O)C(=O)N1CCC[C@H]1C(=O)NCC(=O)N[C@@H](CCCNC(=N)N)C(=O)N1CCC[C@H]1C(=O)N1CCC[C@H]1C(=O)N1CCC[C@H]1C(=O)N[C@H](C(=O)N[C@@H](CC(C)C)C(N)=O)[C@@H](C)O)", "values": [{"measurement": "Glucose uptake, % of Control, +Insulin 10 μU/ml", "setting": "[1]; insulin 10 μU/ml", "value": "67&"}, {"measurement": "Glucose-Update: Mean DPM ± SEM of Quadruplicates, +Insulin 10 μU/ml", "setting": "[1]; insulin 10 μU/ml", "value": "1,210 ± 110 DPM"}, {"measurement": "Glucose uptake, % of Control, −Insulin", "setting": "[1]; without insulin", "value": 67, "unit": "%"}, {"measurement": "Glucose-Update: Mean DPM ± SEM of Quadruplicates, −Insulin", "setting": "[1]; without insulin", "value": "775 ± 72", "unit": "DPM"}]}
{"substance": "K085D102: a Jak2-derived peptide from the αD region, SEQ ID NO:143 (GLRDYLQKHKERI), N-myristylated, C-amidated (Myristoyl-GLRDYLQKHKERI-NH2; SMILES CCCCCCCCCCCCCC(=O)NCC(=O)N[C@@H](CC(C)C)C(=O)N[C@@H](CCCNC(=N)N)C(=O)N[C@@H](CC(=O)O)C(=O)N[C@@H](Cc1ccc(O)cc1)C(=O)N[C@@H](CC(C)C)C(=O)N[C@@H](CCC(N)=O)C(=O)N[C@@H](CCCCN)C(=O)N[C@@H](Cc1c[nH]cn1)C(=O)N[C@@H](CCCCN)C(=O)N[C@@H](CCC(=O)O)C(=O)N[C@@H](CCCNC(=N)N)C(=O)N[C@H](C(N)=O)[C@@H](C)CC)", "values": [{"measurement": "Melanogenesis induction: lowest concentration showing dose response", "setting": "[2]", "value": 0.15, "unit": "µM"}, {"measurement": "% change in body wt. (relative to day 0), treatment day 1", "setting": "[3]; [7]", "value": 94, "unit": "%"}, {"measurement": "Food Intake (g/mouse/day), treatment day 1", "setting": "[3]; [7]", "value": 0.24, "unit": "g/mouse/day"}, {"measurement": "% change in body wt. (relative to day 0), treatment day 2", "setting": "[3]; [8]", "value": 95, "unit": "%"}, {"measurement": "Food Intake (g/mouse/day), treatment day 2", "setting": "[3]; [8]", "value": 1.43, "unit": "g/mouse/day"}, {"measurement": "Food Intake (g/mouse/day), baseline", "setting": "[3]; baseline before treatment", "value": 3.16, "unit": "g/mouse/day"}, {"measurement": "% change in body wt. (relative to day 0), day 0", "setting": "[3]; day 0 (reference)", "value": 100, "unit": "%"}, {"measurement": "% change in body wt. (relative to day 0), recovery", "setting": "[3]; [9]", "value": 97, "unit": "%"}, {"measurement": "Food Intake (g/mouse/day), recovery", "setting": "[3]; [9]", "value": 3.62, "unit": "g/mouse/day"}]}
{"substance": "K086D102: Jak3 peptide derived from the αD region, SEQ ID NO:146 (GMEYLPSGSLRDFLQRHRARL), N-myristylated, C-amidated (Myristoyl-GMEYLPSGSLRDFLQRHRARL-NH2; SMILES CCCCCCCCCCCCCC(=O)NCC(=O)N[C@@H](CCSC)C(=O)N[C@@H](CCC(=O)O)C(=O)N[C@@H](Cc1ccc(O)cc1)C(=O)N[C@@H](CC(C)C)C(=O)N1CCC[C@H]1C(=O)N[C@@H](CO)C(=O)NCC(=O)N[C@@H](CO)C(=O)N[C@@H](CC(C)C)C(=O)N[C@@H](CCCNC(=N)N)C(=O)N[C@@H](CC(=O)O)C(=O)N[C@@H](Cc1ccccc1)C(=O)N[C@@H](CC(C)C)C(=O)N[C@@H](CCC(N)=O)C(=O)N[C@@H](CCCNC(=N)N)C(=O)N[C@@H](Cc1c[nH]cn1)C(=O)N[C@@H](CCCNC(=N)N)C(=O)N[C@@H](C)C(=O)N[C@@H](CCCNC(=N)N)C(=O)N[C@@H](CC(C)C)C(N)=O)", "values": [{"measurement": "IFNγ production (Th1 conversion)", "setting": "[4]", "value": "increase"}, {"measurement": "IL-4 production (Th1 conversion)", "setting": "[4]", "value": "decrease"}]}
{"substance": "K086D101: Jak3 αD region peptide, SEQ ID NO:145 (GMEYLPSGSLRDFLQRHRAL), N-myristylated, C-amidated (Myristoyl-GMEYLPSGSLRDFLQRHRAL-NH2; SMILES CCCCCCCCCCCCCC(=O)NCC(=O)N[C@@H](CCSC)C(=O)N[C@@H](CCC(=O)O)C(=O)N[C@@H](Cc1ccc(O)cc1)C(=O)N[C@@H](CC(C)C)C(=O)N1CCC[C@H]1C(=O)N[C@@H](CO)C(=O)NCC(=O)N[C@@H](CO)C(=O)N[C@@H](CC(C)C)C(=O)N[C@@H](CCCNC(=N)N)C(=O)N[C@@H](CC(=O)O)C(=O)N[C@@H](Cc1ccccc1)C(=O)N[C@@H](CC(C)C)C(=O)N[C@@H](CCC(N)=O)C(=O)N[C@@H](CCCNC(=N)N)C(=O)N[C@@H](Cc1c[nH]cn1)C(=O)N[C@@H](CCCNC(=N)N)C(=O)N[C@@H](C)C(=O)N[C@@H](CC(C)C)C(N)=O)", "values": [{"measurement": "S.I.* (μM) for HEC Cells", "setting": "[5]", "value": 0.6, "unit": "µM"}, {"measurement": "S.I.* (μM) for PC3 Cells", "setting": "[6]", "value": 0.6, "unit": "µM"}]}
